Experiments:
Type in all cases: cell-based
[1] = target: T1, Voltage-dependent T-type calcium channel subunit alpha-1H (Homo sapiens, UniProt O95180); assay: Inhibition of human CaV3.2 expressed in HEK293 cells at -100 mV membrane potential by whole cell path clamp method
[2] = target: Transient receptor potential cation channel subfamily V member 1 (Homo sapiens) (UniProt Q8NER1); assay: Inhibition of TRPV1 expressed in HEK293 assessed as capsaicin activation cells at 3.3 ug/mL by FLIPR assay
[3] = target: T1, Voltage-dependent T-type calcium channel subunit alpha-1H; assay: Inhibition of human CaV3.2 expressed in HEK293 cells at -100 mV membrane potential by Ionworks HT assay

Sequence of Transient receptor potential cation channel subfamily V member 1 (Homo sapiens) (Q8NER1 whole entry): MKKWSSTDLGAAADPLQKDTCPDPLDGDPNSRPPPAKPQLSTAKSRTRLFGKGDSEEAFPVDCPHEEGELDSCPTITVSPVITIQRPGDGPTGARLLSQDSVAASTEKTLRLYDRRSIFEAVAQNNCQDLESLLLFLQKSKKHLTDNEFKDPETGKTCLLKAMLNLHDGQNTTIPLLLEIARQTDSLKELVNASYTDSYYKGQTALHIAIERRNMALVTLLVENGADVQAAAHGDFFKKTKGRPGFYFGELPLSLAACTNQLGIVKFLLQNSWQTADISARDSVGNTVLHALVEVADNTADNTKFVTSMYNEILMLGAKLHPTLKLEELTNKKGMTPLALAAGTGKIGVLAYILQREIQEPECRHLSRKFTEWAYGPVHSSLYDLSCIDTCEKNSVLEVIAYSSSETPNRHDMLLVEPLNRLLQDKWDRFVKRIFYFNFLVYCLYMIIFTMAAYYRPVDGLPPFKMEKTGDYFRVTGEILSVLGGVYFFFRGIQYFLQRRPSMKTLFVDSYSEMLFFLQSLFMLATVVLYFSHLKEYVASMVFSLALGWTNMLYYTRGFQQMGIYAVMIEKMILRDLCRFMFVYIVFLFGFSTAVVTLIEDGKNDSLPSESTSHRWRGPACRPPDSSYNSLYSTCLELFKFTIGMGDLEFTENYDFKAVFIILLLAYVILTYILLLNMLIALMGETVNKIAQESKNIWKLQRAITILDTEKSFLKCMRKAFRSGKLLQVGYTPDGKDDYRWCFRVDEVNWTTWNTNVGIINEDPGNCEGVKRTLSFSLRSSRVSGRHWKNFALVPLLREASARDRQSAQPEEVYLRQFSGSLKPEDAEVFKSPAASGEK
T1 sequence (O95180 whole entry): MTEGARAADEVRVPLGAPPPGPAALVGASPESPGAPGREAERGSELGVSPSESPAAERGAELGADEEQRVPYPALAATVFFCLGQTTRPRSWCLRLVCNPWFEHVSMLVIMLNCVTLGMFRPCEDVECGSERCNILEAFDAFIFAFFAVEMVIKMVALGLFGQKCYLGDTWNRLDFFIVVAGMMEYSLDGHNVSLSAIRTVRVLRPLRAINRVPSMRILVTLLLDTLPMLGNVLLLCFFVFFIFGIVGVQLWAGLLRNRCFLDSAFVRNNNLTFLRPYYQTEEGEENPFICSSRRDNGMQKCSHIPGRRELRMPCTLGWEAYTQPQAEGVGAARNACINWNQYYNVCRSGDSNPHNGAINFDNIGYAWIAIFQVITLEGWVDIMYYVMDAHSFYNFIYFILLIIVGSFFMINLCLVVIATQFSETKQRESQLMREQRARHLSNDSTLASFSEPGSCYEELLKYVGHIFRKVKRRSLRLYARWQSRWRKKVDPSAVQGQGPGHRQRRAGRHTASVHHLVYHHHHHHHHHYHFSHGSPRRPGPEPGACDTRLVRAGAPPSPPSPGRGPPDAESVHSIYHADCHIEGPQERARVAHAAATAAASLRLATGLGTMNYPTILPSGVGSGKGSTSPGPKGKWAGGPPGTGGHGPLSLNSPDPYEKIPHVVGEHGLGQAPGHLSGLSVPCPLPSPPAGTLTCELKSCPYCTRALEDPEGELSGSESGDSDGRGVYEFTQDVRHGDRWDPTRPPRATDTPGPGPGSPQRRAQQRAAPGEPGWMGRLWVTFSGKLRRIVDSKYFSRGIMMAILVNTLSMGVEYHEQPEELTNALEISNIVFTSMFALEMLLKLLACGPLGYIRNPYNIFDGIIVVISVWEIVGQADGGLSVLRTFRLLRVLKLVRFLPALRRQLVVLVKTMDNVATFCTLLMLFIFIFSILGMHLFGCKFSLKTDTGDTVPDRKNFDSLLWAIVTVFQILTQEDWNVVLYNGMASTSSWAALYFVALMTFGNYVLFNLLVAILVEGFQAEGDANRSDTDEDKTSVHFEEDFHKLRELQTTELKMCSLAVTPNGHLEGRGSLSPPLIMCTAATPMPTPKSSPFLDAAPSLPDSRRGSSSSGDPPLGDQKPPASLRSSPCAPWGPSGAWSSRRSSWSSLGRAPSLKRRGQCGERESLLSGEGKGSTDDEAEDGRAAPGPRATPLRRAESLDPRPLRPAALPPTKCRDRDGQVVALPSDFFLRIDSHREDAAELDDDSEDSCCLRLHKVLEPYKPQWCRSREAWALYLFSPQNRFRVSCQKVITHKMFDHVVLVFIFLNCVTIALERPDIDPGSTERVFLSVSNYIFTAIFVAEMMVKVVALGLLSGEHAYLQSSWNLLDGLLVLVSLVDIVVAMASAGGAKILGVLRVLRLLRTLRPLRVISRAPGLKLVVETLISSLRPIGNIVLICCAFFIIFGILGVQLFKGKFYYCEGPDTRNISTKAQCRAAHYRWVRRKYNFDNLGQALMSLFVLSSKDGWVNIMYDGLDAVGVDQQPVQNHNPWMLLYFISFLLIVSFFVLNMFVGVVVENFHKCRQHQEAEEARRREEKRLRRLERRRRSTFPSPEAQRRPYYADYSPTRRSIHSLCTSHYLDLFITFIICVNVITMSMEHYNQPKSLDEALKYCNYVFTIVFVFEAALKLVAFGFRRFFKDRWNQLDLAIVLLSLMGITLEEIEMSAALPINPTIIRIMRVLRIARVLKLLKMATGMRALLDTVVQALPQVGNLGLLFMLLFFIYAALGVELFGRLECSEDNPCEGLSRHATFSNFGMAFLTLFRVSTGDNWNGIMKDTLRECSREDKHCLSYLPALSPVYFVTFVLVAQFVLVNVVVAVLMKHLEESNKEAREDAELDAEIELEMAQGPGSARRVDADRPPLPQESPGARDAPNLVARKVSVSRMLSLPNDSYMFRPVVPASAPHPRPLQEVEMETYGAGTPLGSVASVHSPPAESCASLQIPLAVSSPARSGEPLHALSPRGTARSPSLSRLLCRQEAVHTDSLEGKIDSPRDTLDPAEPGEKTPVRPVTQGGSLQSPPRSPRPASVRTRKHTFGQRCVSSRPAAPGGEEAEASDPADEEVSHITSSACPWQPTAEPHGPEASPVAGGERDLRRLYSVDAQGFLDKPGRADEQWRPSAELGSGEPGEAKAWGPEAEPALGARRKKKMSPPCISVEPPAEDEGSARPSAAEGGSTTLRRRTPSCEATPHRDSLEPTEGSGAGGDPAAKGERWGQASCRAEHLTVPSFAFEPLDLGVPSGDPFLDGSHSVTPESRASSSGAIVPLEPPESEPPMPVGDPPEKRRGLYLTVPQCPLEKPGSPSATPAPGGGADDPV

| IC50 [1] | inhibition [2] | IC50 [3] | Structure (SMILES) |
| --- | --- | --- | --- |
|  | 6% | 3330 nM | COC(=O)[C@H](CO)NC(=O)N1CCC2(CC1)C(=O)N(c1cccc(F)c1)C2c1ccc(Cl)cc1 (some centres undefined) |
|  | 5.2% | 1250 nM | CCC(C)NC(=O)N1CCC2(CC1)C(=O)N(c1cccc(F)c1)C2c1ccc(Cl)cc1 (centres undefined) |
| 17000 nM |  | 35 nM | CC[C@H](C)[C@H](NC(=O)N1CCC2(CC1)C(=O)N(c1cccc(F)c1)C2c1ccc(Cl)cc1)C(=O)OC#N (some centres undefined) |
|  | 4.8% |  | CC[C@H](C)[C@H](NC(=O)N1CCC2(CC1)C(=O)N(c1cccc(F)c1)C2c1ccc(Cl)cc1)C(=O)NC (some centres undefined) |
|  | 18% |  | CC[C@H](C)[C@H](NC(=O)N1CCC2(CC1)C(=O)N(c1cccc(F)c1)C2c1ccc(Cl)cc1)C(=O)OC(C)C (some centres undefined) |
|  | 4.4% |  | COC(=O)[C@H](COC(C)(C)C)NC(=O)N1CCC2(CC1)C(=O)N(c1cccc(F)c1)C2c1ccc(Cl)cc1 (some centres undefined) |
|  | 25.2% | 410 nM | CC[C@H](C)[C@H](NC(=O)N1CCC2(CC1)CN(C)C2c1ccc(Cl)cc1)C(=O)OC (mixture of isomers) |
|  | 3.12% | 800 nM | CC[C@H](C)[C@H](NC(=O)N1CCC2(CC1)C(=O)N(C)C2c1ccc(Cl)cc1)C(=O)OC (mixture of isomers) |
|  |  | 146 nM | CC[C@H](C)[C@H](NC(=O)N1CCC2(CC1)CN(c1cccc(F)c1)C2c1ccc(Cl)cc1)C(=O)OC (stereo in doubt; 22a) [listing 1 of 2 here] |
|  | 8.5% |  | CC[C@H](C)[C@H](NC(=O)N1CCC2(CC1)CN(c1cccc(F)c1)C2c1ccc(Cl)cc1)C(=O)OC (stereo in doubt; 22a) [listing 2 of 2 here] |
|  |  | 3200 nM | CC[C@H](C)[C@H](NC(=O)N1CCC2(CC1)CN(c1cccc(F)c1)C2c1ccc(Cl)cc1)C(=O)OC (stereo in doubt; 22b) [listing 1 of 2 here] |
|  | 12.5% |  | CC[C@H](C)[C@H](NC(=O)N1CCC2(CC1)CN(c1cccc(F)c1)C2c1ccc(Cl)cc1)C(=O)OC (stereo in doubt; 22b) [listing 2 of 2 here] |
| 109 nM |  | 45 nM | CC[C@H](C)[C@H](NC(=O)N1CCC2(CC1)C(=O)N(c1cccc(F)c1)C2c1ccc(Cl)cc1)C(=O)OC (stereo in doubt; 23a) [listing 1 of 2 here] |
|  | 6.18% |  | CC[C@H](C)[C@H](NC(=O)N1CCC2(CC1)C(=O)N(c1cccc(F)c1)C2c1ccc(Cl)cc1)C(=O)OC (stereo in doubt; 23a) [listing 2 of 2 here] |
|  |  | 872 nM | CC[C@H](C)[C@H](NC(=O)N1CCC2(CC1)C(=O)N(c1cccc(F)c1)C2c1ccc(Cl)cc1)C(=O)OC (stereo in doubt; 23b) [listing 1 of 2 here] |
|  | 8.79% |  | CC[C@H](C)[C@H](NC(=O)N1CCC2(CC1)C(=O)N(c1cccc(F)c1)C2c1ccc(Cl)cc1)C(=O)OC (stereo in doubt; 23b) [listing 2 of 2 here] |
|  | 6.79% |  | O=C(Nc1cc(F)cc(F)c1)N1CCC2(CC1)C(=O)N(c1cccc(F)c1)C2c1ccc(Cl)cc1 (stereo in doubt; 36b) |

The remaining lines, values behind:

| Structure (SMILES) | IC50 [1] | inhibition [2] | IC50 [3] |
| --- | --- | --- | --- |
| N#Cc1cccc(N2C(=O)C3(CCN(C(=O)Nc4cc(F)cc(F)c4)CC3)C2c2ccccn2)c1 (centres undefined) | 19300 nM |  |  |
| CC[C@H](C)[C@H](NC(=O)N1CCC2(CC1)CN(C(C)C)C2c1ccc(F)cc1)C(=O)OC (mixture of isomers) |  | 13.4% | 256 nM |
| CC[C@H](C)[C@H](NC(=O)N1CCC2(CC1)CN(C1CC1)C2c1ccc(Cl)cc1)C(=O)OC (mixture of isomers) | 713 nM |  | 325 nM |
| N#Cc1cccc(N2C(=O)C3(CCN(C(=O)Nc4cc(F)cc(F)c4)CC3)C2c2ccccn2)c1 (racemic) |  |  | 2380 nM |
| CN1CC2(CCN(C(=O)Nc3cc(F)cc(F)c3)CC2)C1c1ccc(Cl)cc1 (racemic) |  | 25% | 214 nM |
| CC(C)CN1CC2(CCN(C(=O)Nc3cc(F)cc(F)c3)CC2)C1c1ccc(Cl)cc1 (racemic) |  | 53% | 177 nM |
| O=C(Nc1cc(F)cc(F)c1)N1CCC2(CC1)C(=O)N(C1CC1)C2c1ccc(Cl)cc1 (racemic) |  | 34.2% | 2260 nM |
| O=C(Nc1cc(F)cc(F)c1)N1CCC2(CC1)C(=O)N(c1cncc(Cl)c1)C2c1ccccn1 (racemic) |  | 6.7% |  |
| CC[C@H](C)[C@H](NC(=O)N1CCC2(CC1)CN(C(C)C)C2c1ccc(Cl)cc1)C(=O)OC (stereo in doubt; 2) |  | 87.1% |  |
| CC[C@H](C)[C@H](NC(=O)N1CCC2(CC1)CN(C(C)C)C2c1ccc(Cl)cc1)C(=O)OC (stereo in doubt; 2a) | 124 nM |  | 115 nM |
| CC[C@H](C)[C@H](NC(=O)N1CCC2(CC1)CN(C(C)C)C2c1ccc(Cl)cc1)C(=O)OC (stereo in doubt; 2b) | 3200 nM |  | 733 nM |
| O=C(Nc1cc(F)cc(F)c1)N1CCC2(CC1)CN(c1cccc(F)c1)C2c1ccc(Cl)cc1 (stereo in doubt; 35a) [listing 1 of 2 here] |  |  | 3500 nM |
| O=C(Nc1cc(F)cc(F)c1)N1CCC2(CC1)CN(c1cccc(F)c1)C2c1ccc(Cl)cc1 (stereo in doubt; 35a) [listing 2 of 2 here] |  | 6.22% |  |
| O=C(Nc1cc(F)cc(F)c1)N1CCC2(CC1)CN(c1cccc(F)c1)C2c1ccc(Cl)cc1 (stereo in doubt; 35b) [listing 1 of 2 here] |  |  | 3200 nM |
| O=C(Nc1cc(F)cc(F)c1)N1CCC2(CC1)CN(c1cccc(F)c1)C2c1ccc(Cl)cc1 (stereo in doubt; 35b) [listing 2 of 2 here] |  | 30.1% |  |
| O=C(Nc1cc(F)cc(F)c1)N1CCC2(CC1)C(=O)N(c1cccc(F)c1)C2c1ccc(Cl)cc1 (stereo in doubt; 36a) [listing 1 of 2 here] |  |  | 586 nM |
| O=C(Nc1cc(F)cc(F)c1)N1CCC2(CC1)C(=O)N(c1cccc(F)c1)C2c1ccc(Cl)cc1 (stereo in doubt; 36a) [listing 2 of 2 here] |  | 19.3% |  |
| N#Cc1cccc(NC(=O)N2CCC3(CC2)C(=O)N(c2cccc(F)c2)C3c2ccc(Cl)cc2)c1 (stereo in doubt; 37a) |  | 4.79% |  |
| N#Cc1cccc(NC(=O)N2CCC3(CC2)C(=O)N(c2cccc(F)c2)C3c2ccc(Cl)cc2)c1 (stereo in doubt; 37b) [listing 1 of 2 here] |  |  | 1060 nM |
| N#Cc1cccc(NC(=O)N2CCC3(CC2)C(=O)N(c2cccc(F)c2)C3c2ccc(Cl)cc2)c1 (stereo in doubt; 37b) [listing 2 of 2 here] |  | 12.7% |  |
| O=C(Nc1cc(F)cc(F)c1)N1CCC2(CC1)C(=O)N(c1ccc(F)c(Cl)c1)C2c1ccccn1 (stereo in doubt; 39b) |  |  | 176 nM |
| O=C(Nc1ccc(F)c(F)c1)N1CCC2(CC1)C(=O)N(c1ccc(F)c(Cl)c1)C2c1ccccn1 (stereo in doubt; 40a) |  | 48% |  |
| O=C(Nc1ccc(F)c(F)c1)N1CCC2(CC1)C(=O)N(c1ccc(F)c(Cl)c1)C2c1ccccn1 (stereo in doubt; 40b) [listing 1 of 2 here] |  |  | 402 nM |
| O=C(Nc1ccc(F)c(F)c1)N1CCC2(CC1)C(=O)N(c1ccc(F)c(Cl)c1)C2c1ccccn1 (stereo in doubt; 40b) [listing 2 of 2 here] |  | 39% |  |
| O=C(Nc1cccc(C(F)(F)F)c1)N1CCC2(CC1)C(=O)N(c1ccc(F)c(F)c1)C2c1ccccn1 (stereo in doubt; 41a) |  |  | 17 nM |
| O=C(Nc1ccc(F)c(F)c1)N1CCC2(CC1)C(=O)N(c1cccc(Cl)c1)C2c1ccccn1 (stereo in doubt; 42b) |  | 89% |  |
| N#Cc1cccc(NC(=O)N2CCC3(CC2)C(=O)N(c2cccc(Cl)c2)C3c2ccccn2)c1 (stereo in doubt; 43a) |  | 30% |  |
| O=C(Nc1cc(F)cc(F)c1)N1CCC2(CC1)C(=O)N(c1cccc(Cl)c1)C2c1ccccn1 (stereo in doubt; 44a) |  | 38% |  |
| O=C(Nc1ccc(F)c(F)c1)N1CCC2(CC1)C(=O)N(c1cccc(Cl)c1)C2c1cccc[n+]1[O-] (stereo in doubt; form 2) |  |  | 1500 nM |

— ChEMBL document CHEMBL1208707, “T-type calcium channel blockers: spiro-piperidine azetidines and azetidinones-optimization, design and synthesis” (Bioorg Med Chem Lett, 2010)
